Legend:
Assay type in all cases: biochemical
[1] = target: T1, recombinant human Lp-PLA2 (Homo sapiens, UniProt Q13093); assay: (1b) hrThioPAF assay, recombinant human Lp-PLA2; conditions: Examples 266-412 were tested here, one experiment or average of multiple experiments, read-out: rhLp-PLA2 (pIC50) (converted)
T1 sequence (Q13093 22-441): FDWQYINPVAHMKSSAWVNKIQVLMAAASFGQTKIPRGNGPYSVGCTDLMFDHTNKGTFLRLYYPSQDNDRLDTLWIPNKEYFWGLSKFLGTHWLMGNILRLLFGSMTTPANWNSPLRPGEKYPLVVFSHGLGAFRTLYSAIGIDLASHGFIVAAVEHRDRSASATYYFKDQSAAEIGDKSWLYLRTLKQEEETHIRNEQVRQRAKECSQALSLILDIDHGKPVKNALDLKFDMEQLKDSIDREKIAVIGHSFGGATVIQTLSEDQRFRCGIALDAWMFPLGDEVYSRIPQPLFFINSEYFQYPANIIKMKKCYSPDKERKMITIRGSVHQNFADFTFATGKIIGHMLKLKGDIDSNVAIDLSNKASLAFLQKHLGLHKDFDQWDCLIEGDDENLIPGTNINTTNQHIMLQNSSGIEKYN
From the text: 1-O-Hexadecyl-2-deoxy-2-thio-S-acetyl-sn-glyceryl-3-phosphorylcholine (2-thio-PAF) is a substrate for PAF-hydrolases (PAF-AH) commercially available from Cayman Chemical. Upon cleavage with PAF-AH, the free thiol is released at the sn-2 position and can then react with 7-diethylamino-3-(4′-maleimidylphenyl)-4-methylcoumarin (CPM) a thiol-reactive coumarin. This reaction (Michael addition) results in an increase in fluorescence. Inhibitors of Lp-PLA2 therefore prevent this cleavage and no fluorescent increase is observed.
The Thio-PAF assay was run as an unquenched 20 μL assay. The source plate containing the compounds to be tested was prepared by making 1:3 (by volume) serial dilution of the compounds within DMSO on 384-well microplate. Then, 5 μL of the compounds on compound source plate were transferred into 384 well Greiner 784076 (black) plates using STAR+(Hamilton) liquid dispenser. 10 μL of recombinant human Lp-PLA2 enzyme (20 pM rhLp-PLA2 in assay buffer of 50 mM HEPES, pH 7.4, 150 mM NaCl, 1 mM CHAPS) was added to each well of the plate. 5 μL of substrate comprising 40 μM 2-thio-PAF [from ethanol stock], 40 μM CPM [from a DMSO stock] and 400 μM NEM (N-ethylmaleimide) [made fresh daily in DMSO] in assay buffer (50 mM HEPES, pH 7.4, 150 mM NaCl, 1 mM CHAPS) was added to 384 well Greiner 784076 black plates. Plates were vortexed for 10 sec. The plate was covered to protect it from light and incubated for 20 min at 25° C. The plates were read for fluorescence intensity at ex: 380 nm/em: 485 nm using Envision plate reader (Perkin Elmer). Raw data were transferred to Excel software and pIC50 data, curve and QC analysis was conducted by using XL fit module in Excel.

[2] = target: T1, recombinant human Lp-PLA2; assay: (1a) PED6 assay, recombinant human Lp-PLA2 (rhLp-PLA2); conditions: Examples 1-167 and 413-430 were tested here, one experiment or average of multiple experiments, read-out: rhLp-PLA2 (pIC50) (converted)
Method in brief: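 PED6 (2 μM final after 1:1 addition of 4 μM stock) cleavage by rhLp-PLA2 (4 nM working solution) in 50 mM HEPES pH 7.4, 150 mM NaCl, 1 mM CHAPS; compounds preincubated with enzyme 30 minutes, reaction 20 min at room temperature. Fluorescence at ex 480/em 540; pIC50 from curve fit.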

Lp-PLA2 in human plasma = target: T2, Lp-PLA2 in human plasma (Homo sapiens, UniProt Q13093); assay: (3a) Lp-PLA2 human plasma Thio-PAF assay; conditions: (3a) Thio-PAF assay, pooled human plasma; Examples 1-265 and 413-430 were tested here; read-out: pIC50 in the Lp-PLA2 human plasma assay (converted)
T2 construct: from tissue; host or cells: pooled human plasma
T2 sequence (Q13093 22-441): T1 sequence (Q13093 22-441)
Method in brief: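 Pooled human plasma preincubated 30 min with serially diluted compound, then given 2-thio-PAF substrate with CPM and NEM in 50 mM HEPES pH 7.4, 150 mM NaCl, 1 mM CHAPS. Reaction quenched with TFA after 2 min; CPM thiol-adduct fluorescence read at ex 380/em 485 after 40 min; pIC50 reported.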

Row | IC50 [1] [µM] | IC50 [2] [µM] | IC50 (Lp-PLA2 in human plasma) [µM] | Compound
1 | ≤ 10 |  |  | CCOC(=O)C(C)N1CCN2c3cc(OCc4ccc(F)c(F)c4)nc(=O)n3CC2C1 (single isomer, unassigned) [Example E326, Ethyl 2-(7-((3,4-difluorobenzyl)oxy)-9-oxo-3,4,11,11a-tetrahydro-1H-pyrazino[1′,2′:3,4]imidazo[1,2-c]pyrimidin-2(9H)-yl)propanoate]
2 | ≤ 10 |  |  | N#Cc1cc(COc2cc3n(c(=O)n2)C[C@H]2CC(O)CN32)ccc1F (stereo in doubt) [Example E381, 2-Fluoro-5-((((7R,8aR)-7-hydroxy-1-oxo-1,6,7,8,8a,9-hexahydropyrrolo[1′,2′:3,4]imidazo[1,2-c]pyrimidin-3-yl)oxy)methyl)benzonitrile]
3 |  | ≤ 0.1 | ≤ 10 | Cc1cc(Oc2c(F)cc(COc3cc4n(c(=O)n3)C[C@H]3COCN43)cc2F)ccn1 [Example E161, (S)-6-((3,5-difluoro-4-((2-methylpyridin-4-yl)oxy)benzyl)oxy)-10,10a-dihydro-1H-oxazolo[3′,4′:3,4]imidazo[1,2-c]pyrimidin-8(3H)-one]
4 |  | ≤ 0.001 | ≤ 0.1 | CN1CCN2c3cc(OCc4cc(F)c(Oc5ccnc(C(F)(F)F)c5)c(F)c4)nc(=O)n3CC2C1 (stereo not drawn) [Example E166, 7-((3,5-Difluoro-4-((2-(trifluoromethyl)pyridin-4-yl)oxy)benzyl)oxy)-2-methyl-3,4,11,11a-tetrahydro-1H-pyrazino[1′,2′:3,4]imidazo[1,2-c]pyrimidin-9(2H)-one]
5 |  | ≤ 0.1 | ≤ 10 | CN1CCN2c3cc(OCc4cc(F)c(Oc5cnn(C)c5)c(F)c4)nc(=O)n3CC2C1 (stereo not drawn) [Example E167, 7-((3,5-Difluoro-4-((1-methyl-1H-pyrazol-4-yl)oxy)benzyl)oxy)-2-methyl-3,4,11,11a-tetrahydro-1H-pyrazino[1,2′:3,4]imidazo[1,2-c]pyrimidin-9(2H)-one]
6 | ≤ 10 |  |  | Cc1ccc(COc2cc3n(c(=O)n2)CC2CNCCN32)cc1C#N (stereo not drawn) [Example E271, 2-Methyl-5-(((9-oxo-2,3,4,9,11,11a-hexahydro-1H-pyrazino[1′,2′:3,4]imidazo [1,2-c]pyrimidin-7-yl)oxy)methyl) benzonitrile]

The next lines start with the molecule.

Row | Compound | IC50 [1] [µM] | IC50 [2] [µM] | IC50 (Lp-PLA2 in human plasma) [µM]
7 | N#Cc1cc(CCOc2cc3n(c(=O)n2)CC2(CCOCC2)N3)ccc1F [Example 404, 2-Fluoro-5-(2-((5-oxo-2′,3,3′,5,5′,6′-hexahydro-1H-spiro[imidazo[1,2-c]pyrimidine-2,4′-pyran]-7-yl)oxy)ethyl)benzonitrile] | ≤ 10 |  | 
8 | O=c1nc(OCc2ccc(F)c(F)c2)cc2n1CC1(CCN(S(=O)(=O)C3CC3)CC1)N2 [Example 410, 1′-(Cyclopropylsulfonyl)-7-((3,4-difluorobenzyl)oxy)-1H-spiro[imidazo[1,2-c]pyrimidine-2,4′-piperidin]-5(3H)-one] | ≤ 0.001 |  | 
9 | CCn1cc(Oc2c(F)cc(COc3cc4n(c(=O)n3)C[C@@H]3COCN43)cc2F)cn1 [Example E158, (R)-6-((4-((1-ethyl-1H-pyrazol-4-yl)oxy)-3,5-difluorobenzyl)oxy)-10,10a-dihydro-1H-oxazolo[3′,4′:3,4]imidazo[1,2-c]pyrimidin-8(3H)-one] |  | ≤ 0.1 | ≤ 10
10 | Cc1ncc(Oc2c(F)cc(COc3cc4n(c(=O)n3)C[C@@H]3COCN43)cc2F)cn1 [Example E159, (R)-6-((3,5-difluoro-4-((2-methylpyrimidin-5-yl)oxy)benzyl)oxy)-10,10a-dihydro-1H-oxazolo[3′,4′:3,4]imidazo[1,2-c]pyrimidin-8(3H)-one] |  | ≤ 0.1 | ≤ 10
11 | CCn1cc(Oc2c(F)cc(COc3cc4n(c(=O)n3)C[C@H]3COCN43)cc2F)cn1 [Example E160, (S)-6-((4-((1-ethyl-1H-pyrazol-4-yl)oxy)-3,5-difluorobenzyl)oxy)-10,10a-dihydro-1H-oxazolo[3′,4′:3,4]imidazo[1,2-c]pyrimidin-8(3H)-one] |  | ≤ 0.1 | ≤ 10
12 | O=c1nc(OCc2cccc(F)c2F)cc2n1CC1CNCCN21 (stereo not drawn) [Example E268, 7-((2,3-Difluorobenzyl)oxy)-3,4,11,11a-tetrahydro-1H-pyrazino[1′,2′:3,4] imidazo [1,2-c]pyrimidin-9(2H)-one] | ≤ 10 |  | 
